Drawing on PMC6934184, “Selective DNA-PKcs inhibition extends the therapeutic index of localized radiotherapy and chemotherapy” (The Journal of Clinical Investigation, 2019), this text covers inhibition for one compound.

This experiment addresses T1, NLK (Homo sapiens, UniProt Q9UBE8).
T1 construct: purchased Thermo Fisher Scientific (Life Technologies) SelectScreen
The experiment can be described thus: SelectScreen LanthaScreen. Format: binding. To be noted: read-out: % displacement. In a few lines: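 Percent values come from Thermo SelectScreen profiling of NU5455, combining activity and binding assays. CSF1R was run in Z'LYTE format at Km app ATP, and CAMK1 in Adapta format with ATP listed at 10.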
For orientation: In TR-FRET formats the signal depends on donor and acceptor labels being close together.

T1 sequence (Q9UBE8 whole entry): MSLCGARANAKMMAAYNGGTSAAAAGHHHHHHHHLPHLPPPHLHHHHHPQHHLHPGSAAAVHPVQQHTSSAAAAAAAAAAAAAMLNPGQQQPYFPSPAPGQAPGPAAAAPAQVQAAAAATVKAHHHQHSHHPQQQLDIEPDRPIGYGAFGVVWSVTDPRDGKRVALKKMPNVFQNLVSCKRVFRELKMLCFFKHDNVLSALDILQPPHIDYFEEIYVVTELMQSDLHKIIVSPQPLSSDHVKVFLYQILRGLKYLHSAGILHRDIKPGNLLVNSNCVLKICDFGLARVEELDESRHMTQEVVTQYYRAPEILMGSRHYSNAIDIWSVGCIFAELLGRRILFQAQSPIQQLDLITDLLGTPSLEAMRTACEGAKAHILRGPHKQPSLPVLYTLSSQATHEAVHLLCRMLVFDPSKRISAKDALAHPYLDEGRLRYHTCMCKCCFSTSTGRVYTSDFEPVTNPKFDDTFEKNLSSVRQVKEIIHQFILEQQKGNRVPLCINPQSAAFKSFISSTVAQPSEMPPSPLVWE

With `CN(C(=O)CN1CCOCC1)c1ccc2sc3c(-c4cccc5c(=O)cc(N6CC7CCC(C6)O7)oc45)cccc3c2c1` [NU5455], the inhibition at 1 µM stood at 4.7%.
